Target: T1, VEGFR3 (Homo sapiens, UniProt P35916)
T1 construct: host or cells: HMVEC-dLyAD
Assay: VEGFR3 Phospho ELISA assay in HMVEC-dLyAD cells, VEGFC stimulated
Type: cell-based
Conditions: 1 hour compound, 250 ng/mL VEGFC 10 minutes
Experimental: Adult human dermal lymphatic microvascular endothelial cells (HMVEC-dLyAD) (Cat#CC-2810, Lonza) were seeded into clear-bottom, TC treated 12 well plates (Cat #665180, Greiner Bio-One) in EGM-2MV (Cat#CC-3202, Lonza) at 180,000 cells/well (volume 1 mL), and the plates incubated at 37° C. and 5% CO2 for 6 hours. The media was replaced with EBM-2 (Cat #CC-3156, Lonza)+0.1% BSA (Cat#A8412, Sigma) and cells incubated for a further period (overnight at 37° C. and 5% CO2).
96 well Maxisorp immuno plates (Cat #439454, Nunc) were coated with 100 μL of Total VEGFR3 capture antibody (Part #841888, Human Total VEGFR3/FLT4 ELISA Kit, Cat #DYC3491, R&D Systems), or Phospho VEGFR3 Capture antibody (Part #841885, Human Phospho VEGFR3/FLT4 ELISA Kit, Cat#DYC2724, R&D Systems). The plates were covered and incubated at room temperature overnight.
The coating antibody was flicked out and the plates washed three times with Wash Buffer (Phosphate buffered saline (137 mM NaCl, […], […], […], pH 7.2-7.4), 0.05% Tween 20). 300 μL of blocking buffer (5% v/v Tween 20, 5% w/v sucrose in PBS) was then added to wells and plate incubated for 2 hours at room temperature. Blocking solution is flicked out and plates washed three times and tapped dry.
Compound dilution series were prepared in EBM-2 (Cat #CC-3156, Lonza)+0.1% BSA (Cat#A8412, Sigma) with constant 0.1% DMSO concentration. 439 μL of sample or vehicle control was added to the cell monolayers. Cells are treated for 1 hour at 37° C. and 5% CO2. 250 ng/mL Recombinant human VEGFC (Cat #2179-VC, R & D Systems) added to wells and plates incubated for an additional 10 minutes at 37° C. and 5% CO2.
The media and compounds were removed and the cell monolayer washed once in Dulbecco's Phosphate Buffered Saline (Cat #21600-044, Invitrogen). 130 μL of Lysis buffer added to wells and cell lysate harvested and transferred to tubes and stored on ice. Complete lysis buffer was prepared by adding 10 μL Protease Inhibitor Cocktail (Cat #P8340, Sigma-Aldrich), 10 μL PMSF (Phenylmethanesulfonyl fluoride, Cat #P7626, Sigma-Aldrich, prepared as 500 mM DMSO stock) per 1 mL of Phosphosafe™ Extraction Reagent (Cat #71296, Merck).
The harvested samples were then diluted 1:2 in IC Diluent #18 (5% Tween 20/PBS) and 100 μL transferred to the Total and Phospho VEGFR3 coated, blocked and washed 96 well plates and incubated for 2 hours at room temperature. The plates were then washed three times in wash buffer as described above and tapped dry.
For detection of Total VEGFR3100 μL of Detection antibody (Total VEGFR3 Detection Antibody Part#841888 in Total VEGFR3 kit) diluted in IC Diluent #1 (1% w/v BSA (Cat #A7906, Sigma-Aldrich)/PBS) was added to wells and the plate incubated for 2 hours at room temperature. The plate was then washed three times in wash buffer and tapped dry. 100 μL of streptavidin-HPR diluted in IC diluent #1 Streptavidin-HRP, Part #890803 in Total VEGFR3 kit) was added to wells and incubated at room temperature for 20 minutes followed by washing as described above 100 μL Substrate solution (3,3′,5,5′-Tetramethylbenzidine (TMB) Liquid Substrate System for ELISA, Cat #T0440, Sigma-Aldrich) was added and the plate incubated for 20 minutes in the dark at room temperature followed by the addition of 50 μL stop solution (2 M H2SO4).
Total VEGFR3 levels were quantified using a Multiskan Ascent plate reader and Ascent software fitted with 450 nm filter.
For detection of Phospho VEGFR3, 100 μL of Detection antibody (Anti-Phospho-Tyrosine-HRP Detection Antibody, Part #841403 in Phospho VEGFR3 kit) was diluted in IC Diluent #1 (1% w/v BSA/PBS), added to the wells and the plate incubated for 2 hours at room temperature. The plate was then washed three times in wash buffer as described above and tapped dry. […]

T1 sequence (P35916 25-1363): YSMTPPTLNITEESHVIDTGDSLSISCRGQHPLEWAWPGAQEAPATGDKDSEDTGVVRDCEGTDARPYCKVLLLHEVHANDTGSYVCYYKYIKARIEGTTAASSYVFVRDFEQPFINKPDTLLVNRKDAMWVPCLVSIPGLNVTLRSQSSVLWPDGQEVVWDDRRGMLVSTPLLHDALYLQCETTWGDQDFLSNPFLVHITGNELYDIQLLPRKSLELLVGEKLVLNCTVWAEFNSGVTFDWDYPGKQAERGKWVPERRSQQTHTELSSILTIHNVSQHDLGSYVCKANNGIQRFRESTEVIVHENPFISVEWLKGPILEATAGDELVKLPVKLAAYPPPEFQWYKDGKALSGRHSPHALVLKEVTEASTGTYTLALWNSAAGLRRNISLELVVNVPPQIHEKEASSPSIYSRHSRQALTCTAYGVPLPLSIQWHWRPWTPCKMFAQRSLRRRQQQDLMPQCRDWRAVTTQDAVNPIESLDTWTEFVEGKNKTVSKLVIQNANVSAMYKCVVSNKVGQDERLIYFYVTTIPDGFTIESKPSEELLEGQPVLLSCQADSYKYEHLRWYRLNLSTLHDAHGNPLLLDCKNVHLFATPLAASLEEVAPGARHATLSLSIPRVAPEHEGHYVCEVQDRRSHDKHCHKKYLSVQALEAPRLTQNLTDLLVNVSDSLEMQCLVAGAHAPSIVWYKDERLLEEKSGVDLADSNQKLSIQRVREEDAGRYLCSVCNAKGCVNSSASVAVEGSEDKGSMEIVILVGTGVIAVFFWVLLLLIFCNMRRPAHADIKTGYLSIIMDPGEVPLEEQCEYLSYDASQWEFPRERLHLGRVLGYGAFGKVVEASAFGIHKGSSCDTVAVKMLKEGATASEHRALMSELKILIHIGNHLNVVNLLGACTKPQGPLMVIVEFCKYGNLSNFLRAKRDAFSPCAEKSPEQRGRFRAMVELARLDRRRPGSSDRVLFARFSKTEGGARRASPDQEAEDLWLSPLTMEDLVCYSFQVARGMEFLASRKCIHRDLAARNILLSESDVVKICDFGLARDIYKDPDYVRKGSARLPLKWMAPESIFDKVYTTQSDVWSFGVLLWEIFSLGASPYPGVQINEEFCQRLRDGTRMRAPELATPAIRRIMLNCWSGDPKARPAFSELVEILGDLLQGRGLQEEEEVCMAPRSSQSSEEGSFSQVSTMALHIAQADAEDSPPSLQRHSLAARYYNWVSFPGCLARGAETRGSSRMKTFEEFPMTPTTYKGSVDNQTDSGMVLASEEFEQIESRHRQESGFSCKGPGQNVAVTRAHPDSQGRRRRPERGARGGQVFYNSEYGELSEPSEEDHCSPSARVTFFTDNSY

SMILES | IC50 [nM]
Cc1cnc(Nc2ccc(N3CCNCC3)cc2)nc1CCc1ccccc1CC(N)=O [Compound 2, 2-(2-(2-(5-methyl-2-((4-(piperazin-1-yl)phenyl)amino)pyrimidin-4-yl)ethyl)phenyl)acetamide] | 121
NCc1ccc(Nc2ncc(C(F)(F)F)c(CCc3ccccc3CC(N)=O)n2)cc1 [Compound 3, 2-(2-(2-(2-((4-(Aminomethyl)phenyl)amino)-5-(trifluoromethyl)pyrimidin-4-yl)ethyl)phenyl)acetamide] | 156
Cc1cnc(Nc2ccc(C3CCNCC3)nc2)nc1CCc1ccccc1CC(N)=O [Compound 4, 2-(2-(2-(5-methyl-2-((6-(piperidin-4-yl)pyridin-3-yl)amino)pyrimidin-4-yl)ethyl)phenyl)acetamide] | 2220
Cc1cnc(Nc2ccc(C3CCN(C)CC3)nc2)nc1CCc1ccccc1CC(N)=O [Compound 5, 2-(2-(2-(5-methyl-2-((6-(1-methylpiperidin-4-yl)pyridin-3-yl)amino)pyrimidin-4-yl)ethyl)phenyl)acetamide] | 210
Cc1cnc(Nc2cccnc2)nc1CCc1ccccc1CC(N)=O [Compound 24, 2-(2-(2-(5-methyl-2-(pyridin-3-ylamino)pyrimidin-4-yl)ethyl)phenyl)acetamide] | 169
Cc1cnc(Nc2ccc(OC3CCNCC3)cc2)nc1CCc1ccccc1CC(N)=O [Compound 26, 2-(2-(2-(5-methyl-2-((4-(piperidin-4-yloxy)phenyl)amino)pyrimidin-4-yl)ethyl)phenyl)acetamide] | 83
Cc1cnc(Nc2ccc(C3(N)COC3)cc2)nc1CCc1ccccc1CC(N)=O [Compound 31, 2-(2-(2-(2-(4-(3-aminooxetan-3-yl)phenylamino)-5-methylpyrimidin-4-yl)ethyl)phenyl)acetamide] | 107
CC(N)c1ccc(Nc2ncc(Cl)c(CCc3ccccc3CC(N)=O)n2)cc1 (stereo not drawn) [Compound 37, 2-(2-(2-(2-(4-(1-aminoethyl)phenylamino)-5-chloropyrimidin-4-yl)ethyl)phenyl)acetamide] | 26

Second part, the compound after the results:

IC50 [nM] | SMILES
62 | NC(=O)Cc1ccccc1CCc1nc(Nc2ccc(C(=O)N3CCNCC3)cc2)ncc1C(F)(F)F [Compound 6, 2-(2-(2-(2-((4-(piperazine-1-carbonyl)phenyl)amino)-5-(trifluoromethyl)pyrimidin-4-yl)ethyl)phenyl)acetamide]
39 | Cc1cc(Nc2ncc(C(F)(F)F)c(CCc3ccccc3CC(N)=O)n2)ccc1C1CCNCC1 [Compound 11, 2-(2-(2-(2-((3-methyl-4-(piperidin-4-yl)phenyl)amino)-5-(trifluoromethyl)pyrimidin-4-yl)ethyl)phenyl)acetamide]
116 | Cc1cc(Nc2ncc(C(F)(F)F)c(CCc3ccccc3CC(N)=O)n2)ccc1C1CCN(C)CC1 [Compound 12, 2-(2-(2-(2-((3-methyl-4-(1-methylpiperidin-4-yl)phenyl)amino)-5-(trifluoromethyl)pyrimidin-4-yl)ethyl)phenyl)acetamide]
214 | Cc1cnc(Nc2ccc(C3CCNCC3)cc2)nc1CCc1ccccc1CC(N)=O [Compound 16, 2-(2-(2-(5-methyl-2-((4-(piperidin-4-yl)phenyl)amino)pyrimidin-4-yl)ethyl)phenyl)acetamide]
18 | CC(N)c1ccc(Nc2ncc(C(F)(F)F)c(CCc3ccccc3CC(N)=O)n2)cc1 (stereo not drawn) [Compound 18, 2-(2-(2-(2-(4-(1-aminoethyl)phenylamino)-5-(trifluoromethyl)pyrimidin-4-yl)ethyl)phenyl)acetamide]
190 | Cc1cnc(Nc2cnn(C)c2)nc1CCc1ccccc1CC(N)=O [Compound 28, 2-(2-(2-(5-methyl-2-((1-methyl-^1H-pyrazol-4-yl)amino)pyrimidin-4-yl)ethyl)phenyl)acetamide]
1250 | Cc1cnc(Nc2cnn(C3CCNCC3)c2)nc1CCc1ccccc1CC(N)=O [Compound 33, 2-(2-(2-(5-Methyl-2-((1-(piperidin-4-yl)-^1H-pyrazol-4-yl)amino)pyrimidin-4-yl)ethyl)phenyl)acetamide]

Source: US20150225377A1, “VEGFR3 INHIBITORS” (CANCER THERAPEUTICS CRC PTY LIMITED, priority 2012, published 2015)
